These are literature values, as cited in patent US5211943A, “Pharmaceutical preparation for administration by percutaneous absorption and a method for their manufacture” (Chugai Seiyaku Kabushili Kaisha, priority 1986, dated 1993).

Structures are written as SMILES.

The conditions of data set [1]: high temperature or high humidity, or in solution; Iyakuhin Kenkyu vol. 14, 1983.
Data set [2] deals with coronary vessels. As to conditions: Japanese Patent Publication 58-17463.
For data set [3] the following is noted: oral; rapid increase of blood level.

As for `O=C(NCCO[N+](=O)[O-])c1cccnc1` [Nicorandil, N-(2-hydroxyethyl)nicotinamide nitrate], the stability entry in data set [1] is given as “relatively unstable”. In addition, the “effect on coronary vessels, coronary veins and heart” value in data set [2] is “acts to dilate the coronary vessels and to inhibit contractions of the coronary veins, without much effect on the blood flow through the heart or on heart function”. In addition, in data set [3], the “side effects when given orally” value was “orthostatic hypotension and headache”.
